Data published in patent US20080096894A1, “Anti-Bacterial Compounds” (ASTON UNIVERSITY, priority 2005, published 2008).
≈ marks a conversion by molar mass, not a printed value. Read-outs that look alike come from different tables or passages of the source.

Key:
Experiment in all cases: MIC, agar dilution, multipoint inoculator
MRSA = assay type: cell-based, methicillin-resistant Staphylococcus aureus
Method: (§1) This activity was measured using a multipoint inoculator method as follows. The MIC for each compound was measured using an agar dilution method (Onda, H., et al., Int. J. Antimicrob. Agents. 18, 263 (2001)) (Mueller Hinton agar) by means of a multipoint inoculator delivering 10^4 colony forming units per spot.
‘Staph’ refers to the reference strain of S. aureus (NCTC 6571). A tick in the MRSA column refers to a positive zone against MRSA strain 96-7474, and the MIC range (in μg/ml) which follows is that found against a panel of ten MRSA strains. Where MIC values are given for MRSA, these are stated as a range of values, as testing was carried out on a panel of clinical isolates.

S. epidemisis = assay type: cell-based, Staphylococcus epidermidis; conditions: upper value of MIC reading
Method: as §1

S. aureus = assay type: cell-based, Staphylococcus aureus; conditions: upper value of MIC reading
Method: as §1

S. haemolyticus = assay type: cell-based; conditions: S. haemolyticus Isolate 1, upper value of MIC reading
Method: as §1

E. faecalis = assay type: cell-based; conditions: upper value of MIC reading
Method: as §1

[1] = panel of ten MRSA strains (clinical isolates)
[2] = MRSA Isolate 2, upper value of MIC reading, in µg/mL
[3] = MRSA Isolate 3, upper value of MIC reading, in µg/mL
[4] = MRSA Isolate 4, upper value of MIC reading, in µg/mL
[5] = MRSA Isolate 1, upper value of MIC reading, in µg/mL
[6] = MRSA Isolate 5, upper value of MIC reading, in µg/mL
[7] = MRSA Isolate 6, upper value of MIC reading, in µg/mL
[8] = MRSA Isolate 7, upper value of MIC reading, in µg/mL
[9] = MRSA Isolate 8, upper value of MIC reading, in µg/mL
[10] = MRSA Isolate 9, upper value of MIC reading, in µg/mL
[11] = MRSA Isolate 10, upper value of MIC reading, in µg/mL

CN(C)c1ccc(C=NN=C(N)c2ccccn2)cc1 [Compound 2PYdq]
MRSA MIC range (MRSA; [1]): 128 to 256 µg/mL

NC(=NN=Cc1cc(Br)cc([N+](=O)[O-])c1O)c1ccc2ccccc2n1 [QNcl]
MIC (S. epidemisis; S. epidemisis NCTC 11047): 256 µg/mL (≈ 618 µM) | MIC (MRSA; [2]): 64 | MIC (MRSA; [3]): 64 | MIC (MRSA; [4]): 64 | MIC (S. aureus; S. aureus NCTC 6571): > 256 µg/mL | MIC (S. haemolyticus): 256 µg/mL (≈ 618 µM) | MIC (E. faecalis; E. faecalis Isolate 2): 256 µg/mL (≈ 618 µM) | MIC (E. faecalis; E. faecalis Isolate 3): 256 µg/mL (≈ 618 µM)

NC(=NN=Cc1cc([N+](=O)[O-])ccc1O)c1cnccn1 [PZcj]
MIC (S. epidemisis; S. epidemisis Isolate 1): 256 µg/mL (≈ 894 µM) | MIC (MRSA; [5]): 8 | MIC (MRSA; [2]): 8 | MIC (MRSA; [3]): 4 | MIC (MRSA; [4]): 4 | MIC (MRSA; [6]): 16 | MIC (MRSA; [7]): 16 | MIC (MRSA; [8]): 16 | MIC (MRSA; [9]): 16 | MIC (MRSA; [10]): 16 | MIC (MRSA; [11]): 16 | MRSA MIC range (MRSA; [1]): 4 to 16 µg/mL | MIC (S. aureus; S. aureus Cowan 1): 256 µg/mL (≈ 894 µM) | MIC (S. aureus; S. aureus NCTC 6571): 16 µg/mL (≈ 55.9 µM) | MIC (S. aureus; S. aureus NCTC 10788): 16 µg/mL (≈ 55.9 µM) | MIC (E. faecalis; E. faecalis Isolate 3): 256 µg/mL (≈ 894 µM)

CCc1ccccc1C=NN=C(N)c1ccccn1 [Compound 2PYai]
MRSA MIC range (MRSA; [1]): 128 to 256 µg/mL

CC(C)(C)c1cc(C=NN=C(N)c2ccncc2)cc(C(C)(C)C)c1O [Compound 4PYcr]
MIC (MRSA; [3]): >256 | MRSA MIC range (MRSA; [1]): > 256 µg/mL | MIC (S. aureus; S. aureus NCTC 6571): > 256 µg/mL

NC(=NN=Cc1cccc(Cl)c1)c1ccccn1 [Compound 2PYdg]
MRSA MIC range (MRSA; [1]): 64 to 128 µg/mL

NC(=NN=Cc1ccc(O)c(O)c1O)c1cnccn1 [PZcb]
MIC (S. epidemisis; S. epidemisis NCTC 11047): 256 µg/mL (≈ 937 µM) | MIC (MRSA; [5]): 256 | MIC (MRSA; [2]): 256 | MIC (MRSA; [3]): 256 | MIC (MRSA; [4]): 256 | MIC (MRSA; [6]): 256 | MIC (MRSA; [7]): 256 | MIC (MRSA; [8]): 256 | MIC (MRSA; [9]): 256 | MIC (MRSA; [10]): 256 | MIC (MRSA; [11]): 256 | MRSA MIC range (MRSA; [1]): 128 to 256 µg/mL | MIC (S. aureus; S. aureus Cowan 1): 256 µg/mL (≈ 937 µM) | MIC (S. aureus; S. aureus NCTC 6571): 256 µg/mL (≈ 937 µM) | MIC (S. aureus; S. aureus NCTC 10788): 256 µg/mL (≈ 937 µM) | MIC (S. haemolyticus): 256 µg/mL (≈ 937 µM) | MIC (E. faecalis; E. faecalis Isolate 2): 256 µg/mL (≈ 937 µM) | MIC (E. faecalis; E. faecalis Isolate 3): 256 µg/mL (≈ 937 µM)

NC(=NN=Cc1ccc(O)c(O)c1O)c1ccncc1 [Compound 4PYcb]
MRSA MIC range (MRSA; [1]): 30 to 40 µg/mL

NC(=NN=Cc1cc([N+](=O)[O-])ccc1O)c1ccncc1 [Compound 4PYcj]
MRSA MIC range (MRSA; [1]): 20 to 30 µg/mL

N/C(=N\N=C\c1ccccc1Sc1ccc(Cl)cc1)c1ccncc1 [Compound 4PYeh, N^1-[2-(4-chlorothiophenyl)benzylidene]-pyridine-4-carboxamidrazone]
MIC (S. epidemisis; Staphylococcus epidermidis, 18 h, S. epidemisis Isolate 1, read-out: MIC): 256 µg/mL (≈ 698 µM) | MIC (S. epidemisis; Staphylococcus epidermidis, NCTC11047, 18 h, S. epidemisis NCTC 11047, read-out: MIC): 256 µg/mL (≈ 698 µM) | MIC (MRSA; Staphylococcus aureus, 18 h, MRSA Isolate 1, upper value of MIC reading, read-out: MIC): 16 µg/mL (≈ 43.6 µM) | MIC (MRSA; Staphylococcus aureus, 18 h, MRSA Isolate 2, upper value of MIC reading, read-out: MIC): 16 µg/mL (≈ 43.6 µM) | MIC (MRSA; Staphylococcus aureus, 18 h, MRSA Isolate 3, upper value of MIC reading, read-out: MIC): 16 µg/mL (≈ 43.6 µM) | MIC (MRSA; Staphylococcus aureus, 18 h, MRSA Isolate 4, upper value of MIC reading, read-out: MIC): 16 µg/mL (≈ 43.6 µM) | MIC (MRSA; Staphylococcus aureus, 18 h, MRSA Isolate 5, upper value of MIC reading, read-out: MIC): 16 µg/mL (≈ 43.6 µM) | MIC (MRSA; Staphylococcus aureus, 18 h, MRSA Isolate 6, upper value of MIC reading, read-out: MIC): 16 µg/mL (≈ 43.6 µM) | MIC (MRSA; Staphylococcus aureus, 18 h, MRSA Isolate 7, upper value of MIC reading, read-out: MIC): 64 µg/mL (≈ 174 µM) | MIC (MRSA; Staphylococcus aureus, 18 h, MRSA Isolate 8, upper value of MIC reading, read-out: MIC): 32 µg/mL (≈ 87.2 µM) | MIC (MRSA; Staphylococcus aureus, 18 h, MRSA Isolate 9, upper value of MIC reading, read-out: MIC): 16 µg/mL (≈ 43.6 µM) | MIC (MRSA; Staphylococcus aureus, 18 h, MRSA Isolate 10, upper value of MIC reading, read-out: MIC): 16 µg/mL (≈ 43.6 µM) | MIC (MRSA; Staphylococcus aureus, MRSA, 18 h, panel of ten MRSA strains (clinical isolates), read-out: MRSA MIC range): 8 to 64 µg/mL (≈ 21.8 to 174 µM) | MIC (S. aureus; Staphylococcus aureus, 18 h, S. aureus Cowan 1, read-out: MIC): 8 µg/mL (≈ 21.8 µM) | MIC (S. aureus; Staphylococcus aureus, NCTC6571, 18 h, S. aureus NCTC 6571, read-out: MIC): 128 µg/mL (≈ 349 µM) | MIC (S. aureus; Staphylococcus aureus, NCTC10788, 18 h, S. aureus NCTC 10788, read-out: MIC): 16 µg/mL (≈ 43.6 µM) | MIC (S. haemolyticus; Staphylococcus haemolyticus, 18 h, read-out: MIC): 256 µg/mL (≈ 698 µM)

CC(C)(C)[Si](C)(C)Oc1ccccc1/C=N/N=C(\N)c1cnccn1 [PZeg]
MRSA MIC range (MRSA; [1]): > 256 µg/mL
